Data published in patent US12552753B2, “Methods and compositions for targeting Tregs using CCR8 inhibitors” (Nanjing Immunophage Biomedical Co., Ltd., priority 2020, dated 2026).
Counter-ions that a name gives are not always drawn. Like-named read-outs stand apart in the source and are kept apart here.

Biological target: CCR8 (Homo sapiens, UniProt P51685)
Test: Tango assay (Tango-CCR8-Gal4-CHO-K1 cells, CCL1-stimulated, ONE-Glo luminescence)
[1] = Tango Assay IC50, Inhibition of CCR8 Tango cell in vitro

CCR8, sequence (P51685 whole entry, the tested form may be a part): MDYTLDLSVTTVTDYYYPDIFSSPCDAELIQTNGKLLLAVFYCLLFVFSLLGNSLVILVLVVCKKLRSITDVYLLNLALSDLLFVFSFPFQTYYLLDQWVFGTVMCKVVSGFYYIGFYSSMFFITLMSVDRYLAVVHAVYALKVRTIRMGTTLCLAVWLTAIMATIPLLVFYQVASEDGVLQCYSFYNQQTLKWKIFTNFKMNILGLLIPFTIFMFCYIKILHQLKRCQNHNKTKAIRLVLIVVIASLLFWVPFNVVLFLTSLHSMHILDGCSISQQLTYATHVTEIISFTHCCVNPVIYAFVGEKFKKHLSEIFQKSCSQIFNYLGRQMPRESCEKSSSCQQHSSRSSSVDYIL

IC50 [1] [nM] | IC50 (read-out: Tango Assay IC50, Inhibition of CCR8 Tango cell in vitro) [nM] | SMILES
161 |  | Cc1cc(S(=O)(=O)N[C@H](C)C2CCNCC2)ccc1NC(=O)c1cccs1 [Compound 210A, (R)-N-(2-methyl-4-(N-(1-(piperidin-4-yl)ethyl)sulfamoyl)phenyl)thiophene-2-carboxamide hydrochloride]
96 |  | Cc1cc(S(=O)(=O)N[C@H](C)C2CCNCC2)ccc1NC(=O)c1ccsc1 [Compound 211A, (R)-N-(2-methyl-4-(N-(1-(piperidin-4-yl)ethyl)sulfamoyl)phenyl)thiophene-3-carboxamide hydrochloride]
2500 |  | Cc1cc(S(=O)(=O)N[C@H](C)C2CCNCC2)ccc1NC(=O)C1CCOCC1 [Compound 212A, (R)-N-(2-methyl-4-(N-(1-(piperidin-4-yl)ethyl)sulfamoyl)phenyl)tetrahydro-2H-pyran-4-carboxamide hydrochloride]
> 10000 |  | Cc1ccccc1C(=O)Nc1ccc(S(=O)(=O)NC(C)CC2CCN(C)CC2)c2ccccc12 (stereo not drawn) [Compound 214, 2-methyl-N-(4-(N-(1-(1-methylpiperidin-4-yl)propan-2-yl)sulfamoyl)naphthalen-1-yl)benzamide]
 | 1 | Cc1ccccc1C(=O)Nc1c(C)cc(S(=O)(=O)N[C@H](C)C2CCN(C)CC2)cc1Cl [Compound 220, (R)-N-(2-chloro-6-methyl-4-(N-(1-(1-methylpiperidin-4-yl)ethyl)sulfamoyl)phenyl)-2-methylbenzamide]
24 |  | Cc1ccccc1C(=O)Nc1ccc(S(=O)(=O)N[C@H](C)C2CCN(C)CC2)cc1C#N [Compound 221, (R)-N-(2-cyano-4-(N-(1-(1-methylpiperidin-4-yl)ethyl)sulfamoyl)phenyl)-2-methylbenzamide]
366 |  | Cc1ccccc1NC(=O)c1ccc(S(=O)(=O)N[C@H](C)C2CCN(C)CC2)cc1C [Compound 222, (R)-2-methyl-4-(N-(1-(1-methylpiperidin-4-yl)ethyl)sulfamoyl)-N-(o-tolyl)benzamide]
73 |  | CCC(NS(=O)(=O)c1ccc(NC(=O)c2ccccc2C)c(C)c1)C1CCNCC1 (stereo not drawn) [Compound 223A, 2-methyl-N-(2-methyl-4-(N-(1-(piperidin-4-yl)propyl)sulfamoyl)phenyl)benzamide hydrochloride]
494 |  | Cc1cc(S(=O)(=O)NC(C(C)C)C2CCNCC2)ccc1NC(=O)c1ccccc1C (stereo not drawn) [Compound 224A, 2-methyl-N-(2-methyl-4-(N-(2-methyl-1-(piperidin-4-yl)propyl)sulfamoyl)phenyl)benzamide hydrochloride]
25 |  | Cc1cc(S(=O)(=O)NC(C2CCNCC2)C2CC2)ccc1NC(=O)c1ccccc1C (stereo not drawn) [Compound 225A, N-(4-(N-(cyclopropyl (piperidin-4-yl)methyl)sulfamoyl)-2-methylphenyl)-2-methylbenzamide]
> 100000 |  | Cc1cc(S(=O)(=O)NC(c2ccccc2)C2CCNCC2)ccc1NC(=O)c1ccccc1C (stereo not drawn) [Compound 227A, 2-methyl-N-(2-methyl-4-(N-(phenyl(piperidin-4-yl)methyl)sulfamoyl)phenyl)benzamide]
> 100000 |  | Cc1ccccc1CNc1ccc(S(=O)(=O)N[C@H](C)C2CCN(C)CC2)cc1C [Compound 229, (R)-3-methyl-4-((2-methylbenzyl)amino)-N-(1-(1-methylpiperidin-4-yl)ethyl)benzenesulfonamide]
279 |  | Cc1ccccc1C(=O)N(C)c1ccc(S(=O)(=O)N[C@H](C)C2CCNCC2)cc1C [Compound 231A, (R)-N,2-dimethyl-N-(2-methyl-4-(N-(1-(piperidin-4-yl)ethyl)sulfamoyl)phenyl)benzamide hydrochloride]
685 |  | CCOC(=O)C(C)(C)C(C)NS(=O)(=O)c1ccc(NC(=O)c2ccccc2C)c(C)c1 (stereo not drawn) [Compound 232, ethyl 2,2-dimethyl-3-(3-methyl-4-(2-methylbenzamido)phenylsulfonamido) butanoate]
886 |  | Cc1cc(S(=O)(=O)NC(C)C(C)(C)CO)ccc1NC(=O)c1ccccc1C (stereo not drawn) [Compound 233, 3-((4-(N-(4-hydroxy-3,3-dimethylbutan-2-yl)sulfamoyl)-2-methylphenyl)carbamoyl)-2-methylbenzene-1-ylium]
1400 |  | Cc1cc(S(=O)(=O)NC(CO)C2CCNCC2)ccc1NC(=O)c1ccccc1C (stereo not drawn) [Compound 234, N-(4-(N-(2-hydroxy-1-(piperidin-4-yl)ethyl)sulfamoyl)-2-methylphenyl)-2-methylbenzamide]
158 |  | Cc1cc(S(=O)(=O)N[C@H](C)C2CCNCC2)ccc1NC(=O)Nc1ccccc1 [Compound 236A, (R)-3-methyl-4-(3-phenylureido)-N-(1-(piperidin-4-yl)ethyl)benzenesulfonamide hydrochloride]

IC50 [1] [nM] | IC50 (read-out: Tango Assay IC50, Inhibition of CCR8 Tango cell in vitro) [nM] | SMILES
> 100000 |  | Cc1cc(S(=O)(=O)N(C)[C@H](C)C2CCNCC2)ccc1NC(=O)c1ccccc1C [Compound 237A, (R)-2-methyl-N-(2-methyl-4-(N-methyl-N-(1-(piperidin-4-yl)ethyl)sulfamoyl)phenyl)benzamide hydrochloride]
369 |  | Cc1cc(S(=O)(=O)NCC2CCN(C)CC2)ccc1NC(=O)c1ccccc1C [Compound 238, 2-methyl-N-(2-methyl-4-(N-((1-methylpiperidin-4-yl)methyl)sulfa-moyl)phenyl)benza-mide]
843 |  | Cc1cc(S(=O)(=O)NC(C)C2CCOCC2)ccc1NC(=O)c1ccccc1C (stereo not drawn) [Compound 239, 2-methyl-N-(2-methyl-4-(N-(1-(tetrahydro-2H-pyran-4-yl)ethyl)sulfamoyl)phen-yl)benzamide]
> 100000 |  | COC(=O)C(NS(=O)(=O)c1ccc(NC(=O)c2ccccc2C)c(C)c1)C1CCNCC1 (stereo not drawn) [Compound 240A, methyl 2-((3-methyl-4-(2-methylbenzamido)phen-yl)sulfonamido)-2-(piperidin-4-yl)acetate hydrochloride]
15 |  | Cc1ccccc1C(=O)Nc1cc(F)c(S(=O)(=O)N[C@H](C)C2CCNCC2)cc1Cl [Compound 242A, (R)-N-(2-chloro-5-fluoro-4-(N-(1-(piperidin-4-yl)eth-yl)sulfamoyl)phen-yl)-2-methylbenzamide hydrochloride]
> 100000 |  | Cc1ccccc1C(=O)Nc1cc(F)c(S(=O)(=O)N[C@@H](C)C2CCNCC2)cc1Cl [Compound 242B, (S)-N-(2-chloro-5-fluoro-4-(N-(1-(piperidin-4-yl)ethyl)sulfamoyl)phenyl)-2-methylbenzamide hydrochloride]
12 |  | Cc1ccccc1C(=O)Nc1cc(Cl)c(S(=O)(=O)N[C@H](C)C2CCNCC2)cc1Cl [Compound 243A, (R)-N-(2,5-dichloro-4-(N-(1-(piperidin-4-yl)ethyl)sulfamoyl)phen-yl)-2-methylbenzamide hydrochloride]
> 100000 |  | Cc1ccccc1C(=O)Nc1cc(Cl)c(S(=O)(=O)N[C@@H](C)C2CCNCC2)cc1Cl [Compound 243B, (S)-N-(2,5-dichloro-4-(N-(1-(piperidin-4-yl)ethyl)sulfamoyl)phen-yl)-2-methylbenzamide hydrochloride]
104 |  | Cc1ccccc1C(=O)Nc1ccc(S(=O)(=O)N[C@H](C)C2CCNCC2)c(Cl)c1Cl [Compound 244A, (R)-N-(2,3-dichloro-4-(N-(1-(piperidin-4-yl)ethyl)sulfamoyl)phen-yl)-2-methylbenzamide hydrochloride]
> 100000 |  | Cc1ccccc1C(=O)Nc1ccc(S(=O)(=O)N[C@H](C)C2CCNCC2)c(C)c1Cl [Compound 245A, (R)-N-(2-chloro-3-methyl-4-(N-(1-(piperidin-4-yl)ethyl)sulfamoyl)phen-yl)-2-methylbenzamide hydrochloride]
79 |  | Cc1ccccc1C(=O)Nc1ccc(S(=O)(=O)N[C@H](C)C2CCNCC2)c(F)c1Cl [Compound 246A, (R)-N-(2-chloro-3-fluoro-4-(N-(1-(piperidin-4-yl)ethyl)sulfamoyl)phenyl)-2-methylbenzamide hydrochloride]
1 |  | Cc1cc(S(=O)(=O)N[C@H](C)C2CCN(C3CCCC3)CC2)ccc1NC(=O)c1ccccc1C [Compound 247, (R)-N-(4-(N-(1-(1-cyclopentylpiperidin-4-yl)ethyl)sulfamoyl)-2-methylphenyl)-2-methylbenzamide]
105 |  | COC(=O)CN1CCC([C@@H](C)NS(=O)(=O)c2ccc(NC(=O)c3ccccc3C)c(C)c2)CC1 [Compound 248, methyl(R)-2-(4-(1-((3-methyl-4-(2-methylbenzamido)phenyl)sulfonamido)ethyl)piperidin-1-yl)acetate]
12 |  | Cc1cc(S(=O)(=O)N[C@H](C)C2CCNCC2)ccc1NC(=O)c1ccccc1C(F)(F)F [Compound 249A, (R)-N-(2-methyl-4-(N-(1-(piperidin-4-yl)ethyl)sulfamoyl)phenyl)-2-(trifluoromethyl) benzamide hydrochloride]
105 |  | Cc1cc(S(=O)(=O)N[C@H](C)C2CCNCC2)ccc1NC(=O)c1ccsc1C [Compound 250A, (R)-2-methyl-N-(2-methyl-4-(N-(1-(piperidin-4-yl)ethyl)sulfamoyl)phenyl)thiophene-3-carboxamide hydrochloride]
> 100000 |  | Cc1cc(S(=O)(=O)N[C@H](C)C2CCNCC2)ccc1NC(=O)c1ccncc1C [Compound 251A, (R)-3-methyl-N-(2-methyl-4-(N-(1-(piperidin-4-yl)ethyl)sulfamoyl)phenyl)isonicotinamide hydrochloride]
> 100000 |  | Cc1cc(S(=O)(=O)N[C@H](C)C2CCNCC2)ccc1NC(=O)c1cncs1 [Compound 252A, (R)-N-(2-methyl-4-(N-(1-(piperidin-4-yl)ethyl)sulfamoyl)phenyl)thiazole-5-carboxamide hydrochloride]

SMILES | IC50 [1] [nM] | IC50 (read-out: Tango Assay IC50, Inhibition of CCR8 Tango cell in vitro) [nM]
Cc1cc(S(=O)(=O)N[C@H](C)C2C[C@@H]3CCC2N3)ccc1NC(=O)c1ccccc1C (stereo partly drawn) [Compound 228A, N-(4-(N-(1-(exo-7-azabicyclo[2.2.1]heptan-2-yl)ethyl)sulfamoyl)-2-methylphenyl)-2-methylbenzamide hydrochloride] | > 100000 | 
Cc1cc(S(=O)(=O)NC(C)C23CCN(CC2)CC3)ccc1NC(=O)c1ccccc1C (stereo not drawn) [Compound 241, 2-methyl-N-(2-methyl-4-(N-(1-(quiuclidin-4-yl)ethyl)sulfamoyl)phen-yl)benzamide] | 256 | 
